In publication PMC10014103, “The immunometabolite itaconate stimulates OXGR1 to promote mucociliary clearance during the pulmonary innate immune response” (The Journal of Clinical Investigation, 2023):

Experiment: ITA concentration in BAL after intranasal supplementation (LC-MS)
Type: in vivo
Settings: mouse, bronchoalveolar lavage fluid (BAL), other: intranasal, 20 µL of saline containing 1 mM ITA; 0.5 hours after intranasal ITA supplementation
Description: The concentrations of urea in plasma and BAL were determined using a urea assay kit (Solarbio). For ITA determination, samples were extracted by 80% (vol/vol) chilled (–80°C) methanol and analyzed with an ultra-high-performance liquid chromatograph (Acquity UPLC I-Class, Waters) coupled to a triple quadrupole mass spectrometer (Xevo TQ-XS, Waters). For α-KG determination, samples were lyophilized and derived by methoxyamine (MilliporeSigma) and N-methyl-N-[tert-butyldimethylsilyl] trifluoroacetamide (MilliporeSigma) in pyridine (MilliporeSigma). The derivatized sample was injected into an Agilent 7890A-5975C GC-MS system with an HP-5MS column.
Supplementary Figure 8. ITA level is positively correlated with Mucin 5b or β-defensin 1 concentration in BAL from mice after P. aeruginosa infection
A. ITA concentration in BAL was determined by LC-MS after intranasal delivery of 20μL saline containing PAO1 and 1mM ITA (n=3-4).B-C. Comparison of Mucin 5b (B) and β-defensin1 (C) concentration in BAL of P. aeruginosainfected mice with indicated genotypes (n=4-10). Significance is determined by paired t-test. n.s., no significance. D-E. Correlation analysis of ITA concentration and Mucin 5b (D) or β-defensin1 concentration (E) in BAL ofP. aeruginosainfected WT mice. […]

Question: Which concentration at 0.5 h does the source give for C=C(CC(=O)O)C(=O)O [ITA, itaconate] here?
Answer: 0.2 to 0.3 µM
